Data set [1] is described as follows: Potential maximum tolerated dosages in mice. It counts as in vivo. How it is done: To determine potential maximum tolerated dosages, 3.12, 6.25, 10, and 12.5 mg/kg of CCL-106, for 2, 2, 1, and 1 doses respectively, were administered to mice. […] Mice were administered high doses of CCL-104 and CCL-106.
For data set [2], the system named is PANC-1, HPAF-II, AsPC-1, and MIA-PaCa2. Description: Cell killing against various cancer cell lines. It counts as cell-based. Particulars: all cancer cells tested. How it is done:
Various compounds, including (R)-H4CBD and (S)-H4CBD, and H4CBDV racemic mixture, were tested for cell killing against various cancer cell lines, including PANC-1, HPAF-II, AsPC-1, and MIA-PaCa2.

For data set [3], the system named is A549 Lung Carcinoma Epithelial Cells (CCL-185 from ATCC). Description: Percent viability of lung carcinoma cells. It counts as cell-based. Particulars: Homo sapiens, A549, read-out: Percent viability of cells, Mean (%). How it is done:
GR-X1=H4CBDV, GR-X2=(R)-H4CBD, GR-X3=(S)-H4CBD, GR-X4=HHC.
The IC50 of the hydrogenated cannabivarin, hexahydrocannabidivarin (H4CBDV), (R)-H4CBD, (S)-H4CBD, HHC racemic mixture, and gemcitabine, paclitaxel, and 5-fluorouracil were determined in lung carcinoma cells (A549 Lung Carcinoma Epithelial Cells (CCL-185 from ATCC)) as shown in FIGS. 39-43 and Table 3.

Structures are written as SMILES.

In general, viability refers to the share of living cells, or the viability signal relative to a control. For `CCCc1cc(O)c(C2CC(C)CCC2C(C)C)c(O)c1` (racemic) [CCL-106, hexahydrocannabidivarin], the toxicity observed entry in data set [1] (12.5 mg/kg, mouse) is “acute toxicity for CCL-106 (strong tremors and weight loss)”; in data set [1] (15.63 mg/kg dose at each of days 5, 6, and 7, mouse), “seizure like symptoms but recovered more quickly (around 30 minutes)”; in data set [1] (31.25 mg/kg dose, mouse), “stop moving after about 2 minutes and have seizure like symptoms”; in data set [1] (39.06 mg/kg dose, mouse), “killed a mouse immediately”; in data set [1] (46.87 mg/kg dose, mouse), “killed a mouse immediately”; in data set [1] (3.12, 6.25, and 10 mg/kg dose, mice) it was “No toxicity was observed”. Besides, the tail vein toxicity result in data set [1] (daily 31.25 mg/kg doses, mouse) is “displayed tail vein toxicity on day 2”. For the same compound, in data set [2], the “cytotoxicity against cancer cells” value is given as “shows cytotoxicity against all cancer cells tested”. For the same compound, the viability at 1.56 µM in data set [3] (agent concentration 1.56 uM) was 92.1%. Besides, the viability at 3.12 µM in data set [3] (agent concentration 3.12 uM) was 95.2%. For the same compound, the viability at 6.25 µM in data set [3] (agent concentration 6.25 uM) turned out to be 93.4%. Also, the viability at 12.5 µM in data set [3] (agent concentration 12.5 uM) came to 93.6%. For the same compound, in data set [3] (agent concentration 25 uM), the viability at 25 µM amounted to 21.5%. In data set [3] (agent concentration 50 uM), the viability at 50 µM was found to be 5.65%.

Values taken from patent US20260097049A1, “C[…] AND METHODS OF USE FOR TREATMENT AND PREVENTION OF CANCER” (BlackStone Therapeutics, LLC, priority 2022, published 2026).
